Biological target: T1, purified ITK (Invitrogen PV3875) (Homo sapiens, UniProt Q08881)
T1 construct: purchased Invitrogen PV3875
T1 sequence (Q08881 1-620): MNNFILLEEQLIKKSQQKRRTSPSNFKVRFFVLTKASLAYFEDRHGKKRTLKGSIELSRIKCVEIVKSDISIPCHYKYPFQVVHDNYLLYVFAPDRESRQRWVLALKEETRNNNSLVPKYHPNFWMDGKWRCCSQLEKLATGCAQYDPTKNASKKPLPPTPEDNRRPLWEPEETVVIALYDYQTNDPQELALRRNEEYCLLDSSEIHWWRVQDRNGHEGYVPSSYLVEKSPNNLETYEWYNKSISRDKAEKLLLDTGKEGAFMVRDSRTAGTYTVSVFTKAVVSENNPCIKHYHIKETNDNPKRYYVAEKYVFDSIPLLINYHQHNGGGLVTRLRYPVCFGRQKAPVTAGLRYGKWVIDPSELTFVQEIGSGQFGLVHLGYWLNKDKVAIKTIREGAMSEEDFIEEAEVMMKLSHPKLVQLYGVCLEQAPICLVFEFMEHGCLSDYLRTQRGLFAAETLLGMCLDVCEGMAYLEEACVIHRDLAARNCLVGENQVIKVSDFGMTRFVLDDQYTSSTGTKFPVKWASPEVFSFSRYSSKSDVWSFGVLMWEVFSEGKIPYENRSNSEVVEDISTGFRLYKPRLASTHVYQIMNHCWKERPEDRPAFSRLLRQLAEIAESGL
Experiment: ITK peptide phosphorylation assay (Caliper LabChip or LCMS)
Type: biochemical
Protocol: The ability of purified ITK (Invitrogen PV3875) to catalyze peptide phosphorylation is monitored using a Caliper LabChip 3000 microfluidic unit (Caliper assay) or by liquid chromatography-mass spectrometry (LCMS) using a Waters Acquity system (LCMS assay). […] Reactions are quenched by the addition of 2,2′,2″,2′″-(ethane-1,2-diyldinitrilo)tetraacetic acid (50 mM final). Non-phosphorylated substrate and phosphorylated product peptides are separated and quantified using a Caliper LabChip 3000 instrument. […] Reactions are quenched by the addition of trichloroacetic acid (5% v/v final). Non-phosphorylated substrate and phosphorylated product peptides are separated by ultra performance LC and detected by a coupled triple quadrupole MS device applying multiple reaction monitoring (MRM) for quantification. The area of the MRM-extracted mass signal is used to assess the inhibition by test compounds. Equilibrium dissociation constant (Ki) values for ITK inhibitors are calculated from plots of activity vs. inhibitor concentration using Morrison's quadratic equation that accounts for the potential of tight binding, and by also applying the conversion factor that accounts for competitive inhibition and the concentration of ATP used in the assay relative to its apparent Michaelis constant (Km,app).

[1] = Table 2, Examples 1-140, class symbols

| SMILES | Ki (Table 1, Examples 141-279) [nM] | Ki [1] [nM] |
| --- | --- | --- |
| N#Cc1cccc(Cn2cc(NC(=O)c3n[nH]c4cc(-c5cn[nH]c5)c(F)cc34)cn2)c1 [Example 147, N-[1-[(3-cyanophenyl)meth-yl]pyrazol-4-yl]-5-fluoro-6-(1H-pyrazol-4-yl)-1H-indazole-3-carboxamide] | 7.79 |  |
| O=C(Nc1cnn(CCC2CCCCC2)c1)c1n[nH]c2cc(-c3cn[nH]c3)ccc12 [Example 169, N-[1-(2-cyclohexylethyl)py-razol-4-yl]-6-(1H-pyrazol-4-yl)-1H-indazole-3-carboxamide] | 7.65 |  |
| CN(CCC(c1ccccc1)n1cc(NC(=O)c2n[nH]c3ccccc23)cn1)CC(F)(F)F (centres unmarked) [Example 269, N-[1-[3-[methyl(2,2,2-trifluoroethyl)a-mino]-1-phenyl-propyl]pyrazol-4-yl]-1H-indazole-3-carboxamide] | 105 |  |
| CN(CCC(c1ccccc1)n1cc(NC(=O)c2n[nH]c3ccccc23)cn1)S(C)(=O)=O (centres unmarked) [Example 271] | 6.92 |  |
| CC(C)(O)CNCc1ccc(Cn2cc(NC(=O)c3n[nH]c4ccccc34)cn2)cc1 [Example 113, N-(1-(4-((2-hydroxy-2-methylpropylamino)methyl)benzyl)-1H-pyrazol-4-yl)-1H-indazole-3-carboxamide] |  | 1 to 100 |
| N#Cc1cccc(Cn2cc(NC(=O)c3n[nH]c4ccc(-c5cc[nH]n5)cc34)cn2)c1 [Example 80, N-(1-(3-Cyanobenzyl)-1H-pyrazol-4-yl)-5-(1H-pyrazol-3-yl)-1H-indazole-3-carboxamide] |  | 1 to 100 |
| N#Cc1cccc(Cn2cc(NC(=O)c3n[nH]c4cc(Br)c(F)cc34)cn2)c1 [Example 146, 6-bromo-N-[1-[(3-cyanophenyl)meth-yl]pyrazol-4-yl]-5-fluoro-1H-indazole-3-carboxamide] | 111 |  |
| N#Cc1cccc(Cn2cc(NC(=O)c3n[nH]c4cc(-c5cncc(Cl)c5)ccc34)cn2)c1 [Example 224, 6-(5-chloro-3-pyridyl)-N-[1-[(3-cyanophenyl)meth-yl]pyrazol-4-yl]-1H-indazole-3-carboxamide] | 5.18 |  |
| O=C(Nc1cnn(C(CO)c2ccccc2)c1)c1n[nH]c2ccccc12 (centres unmarked) [Example 256, N-[1-(2-hydroxy-1-phenyl-ethyl)pyrazol-4-yl]-1H-indazole-3-carboxamide] | 146 |  |
| Cc1ccc(Cn2cc(NC(=O)c3n[nH]c4ccccc34)cn2)cc1 [Example 53, N-(1-(4-methylbenzyl)-1H-pyrazol-4-yl)-1H-indazole-3-carboxamide] |  | 1 to 100 |
| O=C(Nc1cnn(Cc2cccc(F)c2)c1)c1n[nH]c2ccccc12 [Example 63, N-(1-(3-fluorobenz)-1H-pyrazol-4-yl)-1H-indazole-3-carboxamide] |  | 1 to 100 |
| O=C(Nc1cnn(Cc2ccc(Cl)cc2Cl)c1)c1n[nH]c2ccccc12 [Example 73, N-(1-(2,4-dichlorobenzyl)-1H-pyrazol-4-yl)-1H-indazole-3-carboxamide] |  | > 100 |
| N#Cc1cccc(Cn2cc(NC(=O)c3n[nH]c4cc(-c5cncnc5)c(F)cc34)cn2)c1 [Example 154, N-[1-[(3-cyanophenyl)meth-yl]pyrazol-4-yl]-5-fluoro-6-pyrimidin-5-yl-1H-indazole-3-carboxamide] | 112 |  |
| O=C(Nc1cnn(Cc2cscn2)c1)c1n[nH]c2cc(-c3cc[nH]n3)ccc12 [Example 43, 6-(1H-Pyrazol-3-yl)-1H-indazole-3-carboxylic acid (1-thiazol-4-ylmethyl-1H-pyrazol-4-yl)-amide] |  | 1 to 100 |
| CN1CCC(Cn2cc(NC(=O)c3n[nH]c4cc(-c5cn[nH]c5)ccc34)cn2)CC1 [Example 258, N-[1-[(1-methyl-4-piperidyl)meth-yl]pyrazol-4-yl]-6-(1H-pyrazol-4-yl)-1H-indazole-3-carboxamide] | 5.68 |  |
| O=C(Nc1cnn(Cc2ccc(F)cc2F)c1)c1n[nH]c2ccccc12 [Example 71, N-(1-(2,4-difluorobenzyl)-1H-pyrazol-4-yl)-1H-indazole-3-carboxamide] |  | 1 to 100 |
| COc1cncc(-c2ccc3c(C(=O)Nc4cnn(C(CN5CCN(C)CC5)c5cccnc5)c4)n[nH]c3c2)c1 (centres unmarked) [Example 232, 6-(5-methoxy-3-pyridyl)-N-[1-[2-(4-methylpiperazin-1-yl)-1-(3-pyridyl)ethyl]py-razol-4-yl]-1H-indazole-3-carboxamide] | 31.4 |  |
| N#Cc1cccc(Cn2cc(NC(=O)c3n[nH]c4cc(N5CCCC5)ccc34)cn2)c1 [Example 86, N-(1-(3-cyanobenzyl)-1H-pyrazol-4-yl)-6-(pyrrolidin-1-yl)-1H-indazole-3-carboxamide] |  | 1 to 100 |
| O=C(Nc1cnn([C@@H](CO)c2cscn2)c1)c1n[nH]c2cc(-c3cn[nH]c3)ccc12 [Example 177, N-[1-[(1R)-2-hydroxy-1-thiazol-4-yl-ethyl]pyrazol-4-yl]-6-(1H-pyrazol-4-yl)-1H-indazole-3-carboxamide] | 7.5 |  |
| CC(CO)c1ccc2[nH]nc(C(=O)Nc3cnn(Cc4cccc(C#N)c4)c3)c2c1 (centres unmarked) [Example 187, N-[1-[(3-cyanophenyl)meth-yl]pyrazol-4-yl]-5-(2-hydroxy-1-methyl-ethyl)-1H-indazole-3-carboxamide] | 7.8 |  |
| O=C(Nc1cnn(Cc2ccncc2)c1)c1n[nH]c2ccccc12 [Example 52, N-(1-(pyridin-4-ylmethyl)-1H-pyrazol-4-yl)-1H-indazole-3-carboxamide] |  | 1 to 100 |
| N#Cc1cncc(-c2ccc3c(C(=O)Nc4cnn(Cc5ccccc5)c4)n[nH]c3c2)c1 [Example 84, N-(1-benzyl-1H-pyrazol-4-yl)-6-(5-cyanopyridin-3-yl)-1H-indazole-3-carboxamide] |  | 1 to 100 |
| O=C(Nc1cnn(CC2CN(Cc3ccccc3)CCO2)c1)c1n[nH]c2cc(-c3cn[nH]c3)ccc12 (centres unmarked) [Example 259, N-[1-[(4-benzylmorpholin-2-yl)methyl]pyrazol-4-yl]-6-(1H-pyrazol-4-yl)-1H-indazole-3-carboxamide] | 2.76 |  |
| CNCc1cccc(Cn2cc(NC(=O)c3n[nH]c4ccccc34)cn2)c1 [Example 101, N-(1-(3-((methylamino)methyl)benzyl)-1H-pyrazol-4-yl)-1H-indazole-3-carboxamide] |  | 1 to 100 |
| Cc1cc2c(C(=O)Nc3cnn(Cc4cccc(C#N)c4)c3)n[nH]c2cc1-c1ccc(N)nc1 [Example 150, 6-(6-amino-3-pyridyl)-N-[1-[(3-cyanophenyl)meth-yl]pyrazol-4-yl]-5-methyl-1H-indazole-3-carboxamide] | 20.1 |  |
| CN1CCN(c2cccc(Cn3cc(NC(=O)c4n[nH]c5cc(-c6cn[nH]c6)ccc45)cn3)c2)CC1 [Example 39, N-[1-[[3-(4-methylpiperazin-1-yl)phenyl]methyl]pyrazol-4-yl]-6-(1H-pyrazol-4-yl)-1H-indazole-3-carboxamide] |  | 0.01 to 1 |
| CC(CO)c1ccc2[nH]nc(C(=O)Nc3cnn(Cc4cccc(C#N)c4)c3)c2c1 (centres unmarked) [Example 186, N-[1-[(3-cyanophenyl)meth-yl]pyrazol-4-yl]-5-(2-hydroxy-1-methyl-ethyl)-1H-indazole-3-carboxamide] | 22 |  |
| O=C(Nc1cnn(Cc2cc(F)ccc2F)c1)c1n[nH]c2ccccc12 [Example 69, N-(1-(2,5-difluorobenzyl)-1H-pyrazol-4-yl)-1H-indazole-3-carboxamide] |  | 1 to 100 |
| CNc1ncc(-c2ccc3c(C(=O)Nc4cnn(Cc5ccccc5)c4)n[nH]c3c2)s1 [Example 190, N-(1-benzylpyrazol-4-yl)-6-[2-(methylamino)thi-azol-5-yl]-1H-indazole-3-carboxamide] | 18.5 |  |

Source: patent US20140309210A1, “INDAZOLE COMPOUNDS, COMPOSITIONS AND METHODS OF USE THEREOF” (Genentech, Inc., priority 2011, published 2014)
